Data on 2 molecules can be found in US7326722B2, “N-[Phenyl(piperidin-2-yl)methyl]benzamide derivatives, their preparation and their application in therapy” (Sanofi-Aventis, priority 2002, dated 2008).

Counter-ions that a name gives are not always drawn.

What is called melting point is the temperature of the solid-liquid transition.

`C[N+]1([O-])CCCCC1C(NC(=O)c1cccc(C(F)(F)F)c1Cl)c1ccccc1` (centres unmarked) (as salt: HCl) [Compound No. 70] returned a melting point of 100 to 102 °C.

Consider `C[N+]1([O-])CCCCC1C(NC(=O)c1cccc(C(F)(F)F)c1Cl)c1ccccc1` (centres unmarked) (as salt: HCl) [Compound No. 69], for which the melting point lay within 126 to 128 °C.
